# Source: article PMC7010297, “How the initiating ribosome copes with ppGpp to translate mRNAs” (PLoS Biology, 2020)
# “And” between values parts separate entries of the source, which are not always exact repeats. Identical values can stand only once. Like-named read-outs stand apart in the source and are kept apart here.
# Target: T1, 30S-bound IF2 (30S IC) (Escherichia coli, UniProt P0A705)
# T1 construct: 6xHis (N); made in house
# Assay: ppGpp (or GDP) to GTP competitive assay for 30S IC formation by MST
# Assay type: binding
# Description: MST was calculated from the respective fluorescence time dependencies (S3 Fig). […] Symbols as in (B). […] Continuous lines indicate nonlinear regression fittings with quadratic (B and E) or same-site competition (G) functions. Three measurements were performed; mean and standard deviations are plotted (S1 Data).
# […] Symbols are as indicated, 3 measurements were performed, and mean and standard deviation are plotted (S1 Data). Continuous lines show nonlinear regression fittings with a same-site inhibition model. […] (PDF) Click here for additional data file.
# T1 sequence (P0A705 whole entry, looked up): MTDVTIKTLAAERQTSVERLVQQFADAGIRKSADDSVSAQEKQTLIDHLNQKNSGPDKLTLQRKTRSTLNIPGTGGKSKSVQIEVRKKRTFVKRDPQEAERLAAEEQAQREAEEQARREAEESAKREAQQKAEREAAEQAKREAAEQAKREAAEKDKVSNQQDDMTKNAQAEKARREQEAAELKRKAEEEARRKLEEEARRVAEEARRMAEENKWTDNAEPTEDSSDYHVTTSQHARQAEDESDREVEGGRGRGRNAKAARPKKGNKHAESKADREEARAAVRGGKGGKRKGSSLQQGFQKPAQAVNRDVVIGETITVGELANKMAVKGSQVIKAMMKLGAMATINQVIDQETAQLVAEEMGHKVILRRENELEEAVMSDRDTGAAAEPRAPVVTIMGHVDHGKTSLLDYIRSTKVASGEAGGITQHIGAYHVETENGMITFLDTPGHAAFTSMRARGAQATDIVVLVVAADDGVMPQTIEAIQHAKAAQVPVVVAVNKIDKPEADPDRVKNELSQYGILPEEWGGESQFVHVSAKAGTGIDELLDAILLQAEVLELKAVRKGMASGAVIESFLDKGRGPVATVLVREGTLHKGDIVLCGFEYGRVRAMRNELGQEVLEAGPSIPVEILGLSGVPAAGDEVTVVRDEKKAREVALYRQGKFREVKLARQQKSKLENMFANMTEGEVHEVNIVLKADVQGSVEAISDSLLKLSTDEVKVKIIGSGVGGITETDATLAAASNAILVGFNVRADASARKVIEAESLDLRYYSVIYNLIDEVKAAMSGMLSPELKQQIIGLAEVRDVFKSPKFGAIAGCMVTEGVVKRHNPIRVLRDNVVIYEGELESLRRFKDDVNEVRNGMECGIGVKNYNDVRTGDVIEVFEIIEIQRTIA
smiles,measurement,setting,value
Nc1nc2c(ncn2[C@@H]2O[C@H](COP(=O)(O)OP(=O)(O)O)[C@@H](OP(=O)(O)OP(=O)(O)O)[C@H]2O)c(=O)[nH]1 [ppGpp],MST Replicates (a.u.),"mInfA, Log [ppGpp] 1.80",985.49 a.u. and 986.54 a.u. and 986.87 a.u.
same,MST Average,"mInfA, Log [ppGpp] 2.10",973.31 a.u.
same,MST Replicates (a.u.),"mInfA, Log [ppGpp] 2.10",972.70 a.u. and 973.61 a.u. and 973.64 a.u.
same,MST Average,"mInfA, Log [ppGpp] 2.40",964.30 a.u.
same,MST Replicates (a.u.),"mInfA, Log [ppGpp] 2.40",963.79 a.u.
same,MST Average,"mInfA, Log [ppGpp] 2.70",958.86 a.u.
same,MST Average,"mInfA, Log [ppGpp] -0.01",1048.67 a.u.
same,MST Average,"mInfA, Log [ppGpp] -0.31",1053.58 a.u.
same,MST Average,"mInfA, Log [ppGpp] -0.61",1049.04 a.u.
same,MST Average,"mMF1, Log [ppGpp] 0.29",1016.08 a.u.
same,MST Average,"mMF1, Log [ppGpp] 0.59",1007.03 a.u.
same,MST Average,"mMF1, Log [ppGpp] 0.89",999.03 a.u.
same,MST Average,"mMF1, Log [ppGpp] 1.19",986.05 a.u.
same,MST Replicates (a.u.),"mMF1, Log [ppGpp] 1.19",985.88 a.u. and 986.00 a.u. and 986.26 a.u.
same,MST Average,"mMF1, Log [ppGpp] 1.49",972.28 a.u.
same,MST Replicates (a.u.),"mMF1, Log [ppGpp] 1.49",971.54 a.u. and 972.59 a.u. and 972.70 a.u.
same,MST Average,"mMF1, Log [ppGpp] 1.80",959.11 a.u.
same,MST Replicates (a.u.),"mMF1, Log [ppGpp] 1.80",958.37 a.u. and 959.24 a.u. and 959.71 a.u.
same,MST Average,"mMF1, Log [ppGpp] 2.10",947.40 a.u.
same,MST Replicates (a.u.),"mMF1, Log [ppGpp] 2.10",946.23 a.u. and 947.67 a.u. and 948.30 a.u.
same,MST Average,"mMF1, Log [ppGpp] 2.40",939.79 a.u.
same,MST Replicates (a.u.),"mMF1, Log [ppGpp] 2.40",938.92 a.u.
same,MST Average,"mMF1, Log [ppGpp] 2.70",942.02 a.u.
same,MST Average,"mMF1, Log [ppGpp] -0.01",1022.73 a.u.
same,MST Average,"mMF1, Log [ppGpp] -0.31",1023.54 a.u.
same,MST Average,"mMF1, Log [ppGpp] -0.61",1029.40 a.u.
same,IC50,"mRNA mInfA, read-out: IC50 Average",29 µM
same,IC50,"mRNA mInfA, read-out: IC50 Replicates",28.5 µM and 29 µM and 29.5 µM
same,IC50,"mRNA mMF1, read-out: IC50 Average",8.64 µM
same,IC50,"mRNA mMF1, read-out: IC50 Replicates",8.44 µM and 8.71 µM and 8.75 µM
same,IC50,"mRNA mTufA, read-out: IC50 Average",131 µM
same,IC50,"mRNA mTufA, read-out: IC50 Replicates",130 µM and 131 µM and 132 µM
same,MST Average,"mTufA, Log [ppGpp] 0.29",1135.97 a.u.
same,MST Average,"mTufA, Log [ppGpp] 0.59",1126.95 a.u.
same,MST Average,"mTufA, Log [ppGpp] 0.89",1118.40 a.u.
same,MST Average,"mTufA, Log [ppGpp] 1.19",1113.08 a.u.
same,MST Replicates (a.u.),"mTufA, Log [ppGpp] 1.19",1112.21 a.u. and 1113.44 a.u. and 1113.60 a.u.
same,MST Average,"mTufA, Log [ppGpp] 1.49",1095.20 a.u.
same,MST Replicates (a.u.),"mTufA, Log [ppGpp] 1.49",1094.85 a.u. and 1094.92 a.u. and 1095.85 a.u.
same,MST Average,"mTufA, Log [ppGpp] 1.80",1070.12 a.u.
same,MST Replicates (a.u.),"mTufA, Log [ppGpp] 1.80",1069.34 a.u. and 1070.42 a.u. and 1070.61 a.u.
same,MST Average,"mTufA, Log [ppGpp] 2.10",1051.04 a.u.
same,MST Replicates (a.u.),"mTufA, Log [ppGpp] 2.10",1050.31 a.u. and 1051.38 a.u. and 1051.44 a.u.
same,MST Average,"mTufA, Log [ppGpp] 2.40",1030.04 a.u.
same,MST Average,"mTufA, Log [ppGpp] 2.70",1004.77 a.u.
same,MST Average,"mTufA, Log [ppGpp] -0.01",1139.93 a.u.
same,MST Average,"mTufA, Log [ppGpp] -0.31",1146.28 a.u.
same,MST Average,"mTufA, Log [ppGpp] -0.61",1160.80 a.u.
same,IC50,"read-out: IC50 of 30S IC formation, mInfA, competition with 50 μM GTP",29 ± 1 µM
same,IC50,"read-out: IC50 of 30S IC formation, mMF1, competition with 50 μM GTP",8.6 ± 0.2 µM
same,IC50,"read-out: IC50 of 30S IC formation, mTufA with SRs I–III removed (+371)",50 ± 5 µM
same,IC50,"read-out: IC50 of 30S IC formation, mTufA, competition with 50 μM GTP",132 ± 1 µM
